Measurements: PMC8212739 (Clinical and Translational Science, 2021)

Legend:
in vitro [1] = details: human, primary human hepatocytes (PHHs) in 2D sandwich cultures
PHHs in spheroids [2] = test: Albumin production, hepatotoxicant sensitivity, spheroids; format: cell-based; details: Homo sapiens, 48 h, read-out: EC50, albumin secretion
CYP3A4 [3] = test: in vitro; details: human, primary human hepatocytes (PHHs) cultured in liver MPS
PHHs in spheroids [4] = details: spheroids vs liver MPS
[5] = tested on: PHHs in sandwich cultures; test: LDH production, hepatotoxicant sensitivity, sandwich cultures; format: cell-based; details: Homo sapiens, 48 h, read-out: EC50, LDH production
PHHs in spheroids [6] = test: LDH production, hepatotoxicant sensitivity, spheroids; format: cell-based; details: Homo sapiens, 48 h, read-out: EC50, LDH production
CYP3A4 [7] = test: in vitro; details: human, primary human hepatocytes (PHHs) in 2D sandwich cultures
CYP3A4 [8] = test: in vitro; details: human, primary human hepatocytes (PHHs) cultured as 3D spheroids
[9] = tested on: PHHs in sandwich cultures; test: Albumin production, hepatotoxicant sensitivity, sandwich cultures; format: cell-based; details: Homo sapiens, 48 h, read-out: EC50, albumin secretion
[10] = tested on: PHHs in sandwich cultures; details: sandwich cultures vs liver MPS
in vitro [11] = details: human, primary human hepatocytes (PHHs) cultured as 3D spheroids
PHHs in liver MPS [12] = test: Albumin production, hepatotoxicant sensitivity, liver MPS; format: cell-based; details: Homo sapiens, 48 h, read-out: EC50, albumin secretion
PHHs in liver MPS [13] = test: LDH production, hepatotoxicant sensitivity, liver MPS; format: cell-based; details: Homo sapiens, 48 h, read-out: EC50, LDH production
PHHs in the liver MPS = test: Drug metabolism and phase II metabolites in the liver MPS
[14] = Stability of glucuronidated diclofenac in maintenance medium at 37°C; format: physicochemical; details: 50 µM
[15] = cited from earlier work

## C[C@H]1O[C@@H](O[C@H]2[C@@H](O)C[C@H](O[C@H]3[C@@H](O)C[C@H](O[C@H]4CC[C@@]5(C)[C@H](CC[C@@H]6[C@@H]5C[C@@H](O)[C@]5(C)[C@@H](C7=CC(=O)OC7)CC[C@]65O)C4)O[C@@H]3C)O[C@@H]2C)C[C@H](O)[C@@H]1O [Digoxin, digoxin]
In vitro [1]
  EC50 at 2 days: 122 µM
PHHs in spheroids [2]
  EC50: 5.4 µM
CYP3A4 [3]
  EC50 at 48 h: […]
PHHs in spheroids [4]
  R, Spearman correlation of CYP3A4 response relative to liver MPS: −0.04
[5]
  EC50: 102 µM
PHHs in spheroids [6]
  EC50: 8.1 µM
CYP3A4 [7]
  EC50 at 48 h: […]
CYP3A4 [8]
  EC50 at 48 h: […]
[9]
  EC50: 157 µM
[10]
  R, Spearman correlation of CYP3A4 response relative to liver MPS: […]
In vitro [11]
  EC50 at 2 days: 6.4 µM
PHHs in liver MPS [12]
  EC50: 41.6 µM
PHHs in liver MPS [13]
  EC50: 146 µM

## CC/C(=C(\c1ccccc1)c1ccc(OCCN(C)C)cc1)c1ccccc1 [Tamoxifen, tamoxifen]
In vitro [1]
  EC50 at 2 days: 23.8 µM

## Cc1c(C)c2c(c(C)c1O)CCC(C)(COc1ccc(CC3SC(=O)NC3=O)cc1)O2 (stereo not drawn) [Troglitazone, troglitazone]
In vitro [1]
  EC50 at 2 days: 35.1 µM
PHHs in spheroids [2]
  EC50: 51.9 µM
CYP3A4 [3]
  EC50 at 48 h: […]
PHHs in spheroids [4]
  R, Spearman correlation of CYP3A4 response relative to liver MPS: 0.80
[5]
  EC50: 77.7 µM
PHHs in the liver MPS; 50 and 100 µM, 48 h of incubation
  Extent of metabolism of parent in liver MPS medium: almost completely metabolized
PHHs in spheroids [6]
  EC50: 94.2 µM
CYP3A4 [7]
  EC50 at 48 h: […]
CYP3A4 [8]
  EC50 at 48 h: […]
[9]
  EC50: 2.6 µM
[10]
  R, Spearman correlation of CYP3A4 response relative to liver MPS: 0.77
In vitro [11]
  EC50 at 2 days: 67.1 µM
PHHs in liver MPS [12]
  EC50: 34.6 µM
PHHs in liver MPS [13]
  EC50: 407 µM

## O=C(O)Cc1ccccc1Nc1c(Cl)cccc1Cl [diclofenac]
PHHs in the liver MPS; 50 µM, 4, 8, 24 and 48 hours
  Concentration in liver MPS culture medium over time: decrease over time

## O=C(Cc1ccccc1Nc1c(Cl)cccc1Cl)O[C@@H]1O[C@H](C(=O)O)[C@@H](O)[C@H](O)[C@H]1O [glucuronidated diclofenac, diclofenac glucuronide]
PHHs in the liver MPS; after 48 h, diclofenac dosed
  Detection in the MPS medium: not detected
[14]
  Time of incubation to become unstable in solution: ≤ 2 h

## C[C@H]1COc2c(N3CCN(C)CC3)c(F)cc3c(=O)c(C(=O)O)cn1c23 [levofloxacin]
[15]
  Hepatotoxicity: does not cause hepatotoxicity

## N[C@@H]1[C@H]2CN(c3nc4c(cc3F)c(=O)c(C(=O)O)cn4-c3ccc(F)cc3F)C[C@@H]12 [trovafloxacin]
[15]
  Hepatotoxicity in humans: induces idiosyncratic hepatotoxicity
